Laboratory results reported in BindingDB's records for doi:10.1021/jm00371a008 (1984).

Target: Folylpolyglutamate synthase (Mus musculus)
Assay: Compound was evaluated for the binding affinity to mouse liver folyl polyglutamate synthetase.

SMILES	Ki [µM]
Nc1nc(N)c2nc(CNc3ccc(C(=O)NC(CCS(=O)(=O)O)C(=O)O)cc3)cnc2n1 (centres undefined) [2-{4-[(2,4-Diamino-pteridin-6-ylmethyl)-amino]-benzoylamino}-4-sulfo-butyric acid]	59
CN(Cc1cnc2nc(N)nc(N)c2n1)c1ccc(C(=O)NC(CS(=O)(=O)O)C(=O)O)cc1 (centres undefined) [2-{4-[(2,4-Diamino-pteridin-6-ylmethyl)-methyl-amino]-benzoylamino}-3-sulfo-propionic acid]	136
CN(Cc1cnc2nc(N)nc(N)c2n1)c1ccc(C(=O)NC(CCS(=O)(=O)O)C(=O)O)cc1 (centres undefined) [2-{4-[(2,4-Diamino-pteridin-6-ylmethyl)-methyl-amino]-benzoylamino}-4-sulfo-butyric acid]	198
Nc1nc(N)c2nc(CNc3ccc(C(=O)NC(CS(=O)(=O)O)C(=O)O)cc3)cnc2n1 (centres undefined) [2-{4-[(2,4-Diamino-pteridin-6-ylmethyl)-amino]-benzoylamino}-3-sulfo-propionic acid]	43
